3 compounds from patent US12064522B2, “Low temperature process for preparing silicon oxide coated pharmaceuticals” (priority 2020, dated 2024) can be followed below.

The data set is described as follows: Flowability (Flow Function, FF) of API particles. In kind it is physicochemical.

In the case of `CC(=O)Nc1ccc(O)cc1` [Acetaminophen], the “Flowability (Flow Function; FF) of uncoated particles” value is recorded as 2.61. The result for `CC(C)Cc1ccc(C(C)C(=O)O)cc1` (stereo not drawn) [ibuprofen] reads 4.23; that for `Cn1c(=O)c2[nH]cnc2n(C)c1=O` [theophylline], 10.
